# Tests used:
# Type in all cases: in vivo
# [1] = tested on: Yellow Fever Mosquito (Aedes aegypti, AEDSAE); assay: Bioassay on Yellow Fever Mosquito (YFM), 96-well plate larval assay; conditions: Species YFM (Yellow Fever Mosquito)
# Experimental: Certain molecules disclosed in this document were tested against YFM using procedures described in the following paragraph. In the reporting of the results, the “GPA & YFM Rating Table” was used (See Table Section).
# Master plates containing 400 μg of a molecule dissolved in 100 μL of dimethyl sulfoxide (DMSO) (equivalent to a 4000 ppm solution) are used. A master plate of assembled molecules contains 15 μL per well. To this plate, 135 μL of a 90:10 water/acetone mixture is added to each well. A robot is programmed to dispense 15 μL aspirations from the master plate into an empty 96-well shallow plate (“daughter” plate). There are 6 reps (“daughter” plates) created per master. The created “daughter” plates are then immediately infested with YFM larvae.
# The day before plates are to be treated, mosquito eggs are placed in Millipore water containing liver powder to begin hatching (4 g. into 400 mL). After the “daughter” plates are created using the robot, they are infested with 220 μL of the liver powder/larval mosquito mixture (about 1 day-old larvae). After plates are infested with mosquito larvae, a non-evaporative lid is used to cover the plate to reduce drying. Plates are held at room temperature for 3 days prior to grading. After 3 days, each well is observed and scored based on mortality. The results are indicated in the table entitled “Table ABC: Biological Results” (See Table Section).
# [2] = tested on: Beet Armyworm (Spodoptera exigua, LAPHEG); assay: Bioassay on Beet Armyworm (BAW), 128-well diet tray assay; conditions: Species BAW (Beet Armyworm), read-out: BAW (Biological Results, rating)
# How it was run: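 Diet in each of eight wells received 50 μg/cm^2 of test molecule (90:10 acetone-water, dried), then one to five second-instar larvae were added. Mortality (%) was scored after five to seven days at 25° C. under 14:10 light-dark and averaged across the wells.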
# [3] = tested on: Cabbage Looper (Trichoplusia ni, TRIPNI); assay: Bioassay on Cabbage Looper (CL), 128-well diet tray assay; conditions: Trichoplusia ni; Species CL (Cabbage Looper); read-out: CL (Biological Results, rating)
# How it was run: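 Mortality of second instar larvae exposed to diet coated with 50 μg/cm^2 compound (acetone-water 90:10 vehicle, dried); 25° C., 5–7 days.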
Compound,"YFM (Biological Results, rating) [1]",pest or weed control at 50 µg/cm2 [2],pest or weed control at 50 µg/cm2 [3]
"O=C(Nc1c(F)cccc1F)c1cc(NC(=O)[C@H]2[C@H](c3ccc(C(F)(F)F)cc3)C2(Cl)Cl)ccc1Cl (relative stereo) [F83, trans-2-Chloro-5-(2,2-dichloro-3-(4-(trifluoromethyl)phenyl)cyclopropane-1-carboxamido)-N-(2,6-difluorophenyl)benzamide]",A (80-100),50 to 100%,50 to 100%
"CN(C(=O)c1cc(NC(=O)[C@H]2[C@H](c3cc(C(F)(F)F)cc(C(F)(F)F)c3)C2(Cl)Cl)ccc1Cl)c1ccc(F)cc1 (relative stereo) [F85, trans-5-(3-(3,5-Bis(trifluoromethyl)phenyl)-2,2-dichlorocyclopropane-1-carboxamido)-2-chloro-N-(4-fluorophenyl)-N-methylbenzamide]",A (80-100),50 to 100%,50 to 100%
"CN(C(=O)c1cc(NC(=O)[C@H]2[C@H](c3cc(Cl)cc(C(F)(F)F)c3)C2(Cl)Cl)ccc1Cl)c1ccc(F)cc1 (relative stereo) [F88, trans-2-Chloro-5-(2,2-dichloro-3-(3-chloro-5-(trifluoromethyl)phenyl)cyclopropane-1-carboxamido)-N-(4-fluorophenyl)-N-methylbenzamide]",B (More than 0-Less than 80),50 to 100%,50 to 100%
"CN(C(=O)c1cc(NC(=O)[C@H]2[C@H](c3cc(Br)cc(Br)c3)C2(Cl)Cl)ccc1Cl)c1ccc(F)cc1 (relative stereo) [F91, trans-2-Chloro-5-(2,2-dichloro-3-(3,5-dibromophenyl)cyclopropane-1-carboxamido)-N-(4-fluorophenyl)-N-methylbenzamide]",B (More than 0-Less than 80),50 to 100%,50 to 100%
"O=C(Nc1ccc(Cl)c(C(=O)N(CC(F)(F)F)c2ccc(F)cc2)c1)[C@H]1[C@H](c2cc(Cl)cc(Cl)c2)C1(Cl)Cl (relative stereo) [F100, trans-2-Chloro-5-(2,2-dichloro-3-(3,5-dichlorophenyl)cyclopropane-1-carboxamido)-N-(4-fluorophenyl)-N-(2,2,2-trifluoroethyl)benzamide]",A (80-100),50 to 100%,50 to 100%
"Cc1cc(Cl)cc([C@H]2[C@H](C(=O)Nc3ccc(Cl)c(C(=O)Nc4ccc(F)cc4)c3)C2(Cl)Cl)c1 (relative stereo) [F116, trans-2-Chloro-5-(2,2-dichloro-3-(3-chloro-5-methylphenyl)cyclopropane-1-carboxamido)-N-(4-fluorophenyl)benzamide]",A (80-100),50 to 100%,50 to 100%
"Cc1cc(Cl)cc([C@H]2[C@H](C(=O)Nc3ccc(Cl)c(C(=O)Nc4c(F)cccc4F)c3)C2(Cl)Cl)c1 (relative stereo) [F118, trans-2-Chloro-5-(2,2-dichloro-3-(3-chloro-5-methylphenyl)cyclopropane-1-carboxamido)-N-(2,6-difluorophenyl)benzamide]",A (80-100),50 to 100%,50 to 100%
"O=C(Nc1ccc(F)cc1)c1cc(NC(=O)[C@H]2[C@H](c3cc(Cl)cc(Cl)c3)C2(Br)Br)ccc1Cl (relative stereo) [F122, trans-2-Chloro-5-(2,2-dibromo-3-(3,5-dichlorophenyl)cyclopropane-1-carboxamido)-N-(4-fluorophenyl)benzamide]",B (More than 0-Less than 80),50 to 100%,50 to 100%
